Source: patent US11801255B2, “Lipid disulfide prodrugs and uses related thereto” (priority 2017, dated 2023)
Like-named read-outs stand apart in the source and are kept apart here.

Legend:
HIV-1 = assay: microbe, parasite or virus in culture; conditions: for TI(CC50/EC50): HIV-1, PBMCs; for HIV-1 potency compared to parent nucleoside TFV: in words
Method: (§1) Compounds synthesized were evaluated against HIV-infected PBMCs and antiviral activity was assessed by measuring reverse transcriptase in cell supernatants. Compounds 11a-e, 12a-e, and 13 were assayed against HBV and qPCR was used to quantify viral DNA following incubation in HepG2.2.15 cells after 6 days.

PBMCs = assay: in vitro; type: cell-based, human
HBV = assay: Antiviral activity against HBV in HepG2.2.15 cells, viral DNA by qPCR after 6 days; conditions: for HBV TI (CC50/EC50): HepG2
Method: as §1

HepG2 = assay: Cytotoxicity: viability of uninfected HepG2 cells; type: cell-based; conditions: read-out: HBV CC50 (HepG2)
in vitro = type: cell-based, human; conditions: human, Table 1, viability of uninfected cells reduced by 50%, read-out: HIV-1 CC50 (PBMCs)
[1] = Stability in PBS (pH 7.4), carbonate/bicarbonate buffer (pH 9) and DMEM by LC-MS; conditions: for half-life: PBS buffer
Method: Compound 11c and 11d were selected as model compounds and subjected to various media including human serum, PBS buffer (pH 7.4), Dulbecco's Modified Eagle Medium (DMEM), and carbonate/bicarbonate buffer (pH 9). Aliquots of each sample were analyzed by LC-MS at varying times points over the course of 2 hours with a final time point at 24 to assess decomposition.
Experiments were performed to see how compounds how compounds 11c and 11d would fare in the presence of base (pH 9), PBS (pH 7.4), and upon exposure to nucleophilic media (DMEM). […] To this end, the stability of hexadecyloxypropyl 2′-deoxy-2′-fluorouridine, a non-labile alkoxyalkyl lipid conjugate of 2′-deoxy-2′-fluorouridine in PBS buffer using Pyrex, Kimax, and silanized glassware was assessed. […] This prompted re-assessment of the PBS stability of the disulfide lipid conjugates in Kimax glassware. Note that all stability experiments were performed in Kimax glassware using hexadecyloxypropyl 2′-deoxy-2′-fluorouridine as an internal standard.

[2] = Cytotoxicity: viability of uninfected HepG2 cells; type: cell-based; conditions: human, uninfected HepG2 cells; Table 1; uninfected cells; read-out: HBV CC50 (HepG2)
[3] = Stability in human plasma/serum by LC-MS; type: in vitro ADME
Method: Aliquots of each sample were analyzed by LC-MS at varying times points over the course of 2 hours with a final time point at 24 to assess decomposition.

[4] = monkeys; cited from earlier work
[5] = rats; cited from earlier work
[6] = read-out: HIV-1 EC50 (PBMCs), Table 2
[7] = Table 2, read-out: HIV-1 CC50 (PBMCs)
[8] = read-out: HBV EC50 (HepG2), Table 2
[9] = Human immunodeficiency virus 1, PBMC, read-out: HIV-1 EC50 (PBMCs)
[10] = Human immunodeficiency virus 1, PBMC, read-out: HIV-1 activity (EC50)
[11] = read-out: HIV-1 activity (EC50), PBMCs
[12] = Table 4, read-out: CC50 (PBMCs)
[13] = read-out: HIV-1 EC50 (PBMCs), Table 1, inhibit HIV-1 by 50%, average of triplicate
[14] = Table 1, viability of uninfected cells reduced by 50%, read-out: HIV-1 CC50 (PBMCs)
[15] = read-out: HBV EC50 (HepG2), Table 1, inhibit HBV by 50%

What does the source list for `CCCCCCCCCCCCCCCCSSCCOP(=O)(CO[C@H](C)Cn1cnc2c(N)ncnc21)OCCSSCCCCCCCCCCCCCCCC` [Compound 12d]?
HIV-1 TI (CC50/EC50) (HIV-1; Table 2, PBMCs): 4.0; EC50 (HIV-1; [6]): 6320 nM; CC50 (PBMCs; [7]): > 25000 nM; HBV TI (CC50/EC50) (HBV; Table 2): >1; EC50 (HBV; [8]): > 25000 nM; CC50 (HepG2; Table 2): > 25000 nM

With `CCCCCCCCCCCCCCCCSSCCOP(=O)(O)COC(C)Cn1cnc2c(N)ncnc21` (stereo not drawn) [Compound 11d, 2-(hexadecyldisulfanyl)ethyl hydrogen (((1-(6-amino-9H-purin-9-yl)propan-2-yl)oxy)methyl)phosphonate] as the compound, how does the EC50 (HIV-1; [9]) read?
Its EC50 is 0.65 nM.

And the EC50 (HIV-1; [10])?
Its EC50 is ~0.5 nM.

What about the “HIV-1 TI (CC50/EC50)” value (HIV-1; Table 1, PBMCs) of the same compound?
Its value is 22,000.

And the “HIV-1 TI (CC50/EC50)” value (HIV-1; Table 3, PBMCs)?
Its value is 22,000.

And the CC50 (in vitro; uninfected PBMCs)?
Its CC50 is 14300 nM.

And the half-life ([1]; carbonate/bicarbonate buffer and DMEM, pH 9)?
Its half-life is ≤ 2 h.

What about the half-life ([1]; pH 7.4) of the same compound?
The half-life was < 0.333 h.

And the EC50 (HBV; Hepatitis B virus, HepG2, read-out: HBV EC50 (HepG2))?
Its EC50 is 20 nM.

And the EC50 (HBV; Hepatitis B virus, HepG2, read-out: HBV potency)?
The EC50 was 20 nM.

What about the “HBV TI (CC50/EC50)” value (HBV; Table 1) of the same compound?
The value was >1250.

What about the “HBV TI (CC50/EC50)” value (HBV; Table 3) of the same compound?
Its value is >1200.

What about the CC50 (HepG2; Table 3) of the same compound?
The CC50 was > 25000 nM.

And the CC50 [2]?
Its CC50 is > 25000 nM.

What about the half-life ([3]; human serum, Kimax glassware, read-out: stability (half-life) in human serum) of the same compound?
Its half-life is > 24 h.

What about the half-life ([3]; human, human plasma, read-out: half-life in human plasma) of the same compound?
Its half-life is > 24 h.

Which results are given for `CCCCCCCCCCCCCCCCSSCCOP(=O)(COC(C)Cn1cnc2c(N)ncnc21)OC` (mixture of isomers) [Compound 13]?
TI(CC50/EC50) (HIV-1; Table 4): 1,500; EC50 (HIV-1; [11]): 26 nM; CC50 (PBMCs; [12]): 38200 nM

Which results are given for `CCCCCCCCCCCCCCCCOCCCOP(=O)(O)CO[C@H](C)Cn1cnc2c(N)ncnc21` [CMX-157, Hexadecyloxypropyl-Tenofovir, reference compound]?
HIV-1 TI (CC50/EC50) (HIV-1): >5000; EC50 (HIV-1; [9]): 20 nM; EC50 (HIV-1; [10]): 20 nM; CC50 (in vitro): > 100000 nM

Which “HIV-1 TI (CC50/EC50)” value (HIV-1; Table 2, PBMCs) does the source give for `CCCCCCCCCCCCCCSSCCOP(=O)(CO[C@H](C)Cn1cnc2c(N)ncnc21)OCCSSCCCCCCCCCCCCCC` [Compound 12c] here?
The value was >529.

What about the “HIV-1 potency compared to parent nucleoside TFV” value (HIV-1) of the same compound?
The value was “two-fold increase in activity”.

What about the EC50 (HIV-1; [6]) of the same compound?
The EC50 was 189 nM.

What about the CC50 (PBMCs; [7]) of the same compound?
The CC50 was > 100000 nM.

What about the “HBV TI (CC50/EC50)” value (HBV; Table 2) of the same compound?
Its value is >1.

What about the EC50 (HBV; [8]) of the same compound?
Its EC50 is > 100000 nM.

What about the CC50 (HepG2; Table 2) of the same compound?
The CC50 was > 100000 nM.

With `CCCCCCCCCCCCCCSSCCOP(=O)(O)CO[C@H](C)Cn1cnc2c(N)ncnc21.N` [Compound 11c] as the compound, how does the “HIV-1 TI (CC50/EC50)” value (HIV-1; Table 1, PBMCs) read?
The value was 28,000.

What about the EC50 (HIV-1; [13]) of the same compound?
Its EC50 is 0.5 nM.

And the CC50 (PBMCs; [14])?
Its CC50 is 14000 nM.

And the “stability of C14 chain relative to C16 linker of compound 11d” value ([1]; all examined media except human serum)?
The value was “near two-fold stability increase”.

And the “HBV TI (CC50/EC50)” value (HBV; Table 1)?
The value was >56.

What about the EC50 (HBV; [15]) of the same compound?
The EC50 was 444 nM.

And the CC50 (HepG2; Table 1, uninfected cells)?
Its CC50 is > 25000 nM.

For `CCCCCCCCCCSSCCOP(=O)(CO[C@H](C)Cn1cnc2c(N)ncnc21)OCCSSCCCCCCCCCC` [Compound 12a], which “HIV-1 TI (CC50/EC50)” value (HIV-1; Table 2, PBMCs) is on record?
The value was >287.

What about the “HIV-1 potency compared to parent nucleoside TFV” value (HIV-1) of the same compound?
Its value is “comparable to TFV”.

And the EC50 (HIV-1; [6])?
The EC50 was 349 nM.

And the CC50 (PBMCs; [7])?
Its CC50 is > 100000 nM.

What about the “HBV TI (CC50/EC50)” value (HBV; Table 2) of the same compound?
The value was >1.

And the EC50 (HBV; [8])?
The EC50 was > 100000 nM.

And the CC50 (HepG2; Table 2)?
Its CC50 is > 100000 nM.

What does the source list for `CCCCCCCCCCCCCCCCCCSSCCOP(=O)(O)CO[C@H](C)Cn1cnc2c(N)ncnc21.N` [Compound 11e]?
HIV-1 TI (CC50/EC50) (HIV-1; Table 1, PBMCs): 11,000; EC50 (HIV-1; [13]): 0.6 nM; CC50 (PBMCs; [14]): 6360 nM; HBV TI (CC50/EC50) (HBV; Table 1): >50; EC50 (HBV; [15]): 505 nM; CC50 (HepG2; Table 1, uninfected cells): > 50000 nM

With `CCCCCCCCCCCCCCCCSSCCOP(=O)(COC(C)Cn1cnc2c(N)ncnc21)OCC(C)(C)C` (mixture of isomers) [Compound 18] as the compound, how does the “TI(CC50/EC50)” value (HIV-1; Table 4) read?
Its value is >700.

What about the EC50 (HIV-1; [11]) of the same compound?
Its EC50 is 140 nM.

What about the CC50 (PBMCs; [12]) of the same compound?
The CC50 was > 100000 nM.

With `Nc1ncnc2c1ncn2CCOCP(=O)(O)O` [adefovir] as the compound, how does the bioavailability [4] read?
The bioavailability was < 1%.

What about the bioavailability [5] of the same compound?
The bioavailability was 8-11%.

With `CCCCCCCCCCCCCCCCSSCCOP(=O)(COC(C)Cn1cnc2c(N)ncnc21)Nc1ccccc1` (mixture of isomers) [Compound 20] as the compound, how does the “TI(CC50/EC50)” value (HIV-1; Table 4) read?
Its value is 7,000.

What about the EC50 (HIV-1; [11]) of the same compound?
Its EC50 is 5 nM.

And the CC50 (PBMCs; [12])?
The CC50 was 34200 nM.

With `CCCCCCCCCCCCCCCCSSCCOP(=O)(COC(C)Cn1cnc2c(N)ncnc21)OCCC` (mixture of isomers) [Compound 15] as the compound, how does the “TI(CC50/EC50)” value (HIV-1; Table 4) read?
The value was 49.0.

What about the EC50 (HIV-1; read-out: EC50 (PBMCs), Table 4, HIV-1) of the same compound?
Its EC50 is 216 nM.

What about the CC50 (PBMCs; [12]) of the same compound?
The CC50 was 10600 nM.
